Experiments:
[1] = molecular target: T1, AtFAAH (Arabidopsis fatty acid amide hydrolase) (Arabidopsis thaliana, UniProt Q7XJJ7); test: radiometric TLC amidohydrolase assay; assay type: biochemical; conditions: activator (raises apparent Vmax, not Km); 100 μM [14C]-NAE 12:0; pH 9, 0.2 mM DDM, 30 °C
T1 construct: gene FAAH
T1 sequence (Q7XJJ7 1-607): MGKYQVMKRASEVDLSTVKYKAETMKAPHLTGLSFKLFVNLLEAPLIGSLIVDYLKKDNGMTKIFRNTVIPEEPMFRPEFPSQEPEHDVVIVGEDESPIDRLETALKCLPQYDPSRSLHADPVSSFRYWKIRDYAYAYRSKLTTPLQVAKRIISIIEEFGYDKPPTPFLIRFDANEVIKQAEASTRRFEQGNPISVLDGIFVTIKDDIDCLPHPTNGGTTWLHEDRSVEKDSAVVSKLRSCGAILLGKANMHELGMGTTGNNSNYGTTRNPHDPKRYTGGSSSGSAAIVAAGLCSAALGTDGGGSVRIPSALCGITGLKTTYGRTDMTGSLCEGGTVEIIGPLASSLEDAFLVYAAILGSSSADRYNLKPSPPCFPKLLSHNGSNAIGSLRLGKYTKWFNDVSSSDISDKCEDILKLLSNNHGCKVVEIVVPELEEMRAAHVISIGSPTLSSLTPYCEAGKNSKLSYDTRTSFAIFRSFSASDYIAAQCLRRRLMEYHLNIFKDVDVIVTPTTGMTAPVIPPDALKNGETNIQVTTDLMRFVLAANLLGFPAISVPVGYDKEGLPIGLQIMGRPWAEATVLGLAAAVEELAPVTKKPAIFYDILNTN

[2] = molecular target: T1, AtFAAH (Arabidopsis fatty acid amide hydrolase); test: radiometric TLC amidohydrolase assay, initial velocities, Michaelis-Menten; assay type: biochemical; conditions: labelled compound ([1-14C]); pH 9 Bis-Tris propane, 0.2 mM DDM, 30 °C; range covers without and with 100 μM MDPD; read-out: apparent Km

Which “fold increase in activity at 100 μM” value [1] does the source give for `COc1ccccc1-n1cc2c(c1-c1ccccc1)c(=O)n(C)c(=O)n2C` [MDPD, 6-(2-methoxyphenyl)-1,3-dimethyl-5-phenyl-1H-pyrrolo[3,4-d]pyrimidine-2,4(3 H,6 H)-dione] here?
Its value is ~ 4 fold.

For `CCCCCCCCCCCC(=O)NCCO` [NAE 12:0, N-lauroylethanolamine], which Km [2] is on record?
Its Km is 27 to 28 µM.

Source: publication PMC5253734, “A chemical genetic screen uncovers a small molecule enhancer of the N-acylethanolamine degrading enzyme, fatty acid amide hydrolase, in Arabidopsis” (Scientific Reports, 2017)
